For assay [1], the system named is DLD-1 cells. Put plainly: Inhibition of proliferation, DLD-1 BRCA2 wt control (Cell Titre Glo 3D). The class given is cell-based. The settings on record: Homo sapiens, read-out: POLQ PD Prolif Lumin (converted). The method in brief:
(§1)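 DLD-1 BRCA2−/− and parental DLD-1 cells exposed to 10-point dose range (10 μM to 0.51 nM, 3-fold) in RPMI/10% FBS at 37 °C, with medium and compound replenished on day 6. Viability by Cell Titre Glo 3D luminescence at day 7 (DLD-1) or day 12 (BRCA2−/−); IC50 as concentration halving maximum signal.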

Assay [2] relates to DLD-1 BRCA2−/− cells. Nature of the assay: Homologous recombination synthetic lethal inhibition of proliferation, DLD-1 BRCA2-/- (Cell Titre Glo 3D). In kind it is cell-based. The conditions noted are these: Homo sapiens, read-out: POLQ PD Prolif Lumin (converted). The method in brief:
as §1

Setting [3] is: DLD-1, second proliferation column (c6), DLD-1 BRCA2 wt control.
[4] abbreviates: DLD-1, first proliferation column (c5), DLD-1 BRCA2-/-.
Setting [5] is: DLD-1, DLD-1 BRCA2 wt control proliferation, column head only partly shown.
Setting [6] is: DLD-1, DLD-1 BRCA2-/- proliferation, column head only partly shown.

Where two headings read alike, the source gives them in different places.

With `CC1(Oc2ncnc3c2nc(-c2cccc(OCCCC(=O)O)c2Cl)n3Cc2cccc(Cl)c2)CC1` [Example T157, 4-(2-chloro-3-(9-(3-chlorobenzyl)-6-(1-methylcyclopropoxy)-9H-purin-8-yl)phenoxy)butanoic acid], the figures for the IC50 in assay [1] (setting [3]) and in assay [2] (setting [4]) were over 10000 nM and 31.6 nM, respectively.

As for `CC1(Oc2ncnc3c2nc(-c2cccc(OC(C)(C)C(=O)O)c2Cl)n3Cc2cccc(Cl)c2)CC1` [Example T158, 2-(2-chloro-3-(9-(3-chlorobenzyl)-6-(1-methylcyclopropoxy)-9H-purin-8-yl)phenoxy)-2-methylpropanoic acid], the IC50 in assay [1] (setting [3]) and in assay [2] (setting [4]) was over 10000 nM throughout.

In the case of `Cc1ccnc(Cn2c(-c3ccc(C(=O)N4CCC4)cc3Cl)nc3c(OC4(C)CC4)ncnc32)c1` [Example T169, azetidin-1-yl(3-chloro-4-(6-(1-methylcyclopropoxy)-9-((4-methylpyridin-2-yl)methyl)-9H-purin-8-yl)phenyl)methanone], the values for the IC50 in assay [1] (setting [3]) and in assay [2] (setting [4]) were 10000 nM and 631 nM, respectively.

Consider `Cc1ccnc(Cn2c(-c3ccc(N4CCCC4=O)cc3Cl)nc3c(OC4(C)CC4)ncnc32)c1` [Example T171, 1-(3-chloro-4-(6-(1-methylcyclopropoxy)-9-((4-methylpyridin-2-yl)methyl)-9H-purin-8-yl)phenyl)pyrrolidin-2-one], for which the IC50 is over 10000 nM in assay [1] (setting [3]) and 158 nM in assay [2] (setting [4]).

Regarding `Cc1ccnc(Cn2c(-c3ccc(N4CC[C@@H](O)C4=O)cc3Cl)nc3c(OC4(C)CC4)ncnc32)c1` [Example T181, (R)-1-(3-chloro-4-(6-(1-methylcyclopropoxy)-9-((4-methylpyridin-2-yl)methyl)-9H-purin-8-yl)phenyl)-3-hydroxypyrrolidin-2-one], the IC50 is over 10000 nM in assay [1] (setting [3]) and 316 nM in assay [2] (setting [4]).

As for `Cc1ccnc(Cn2c(-c3ccc(O[C@H]4CCNC4=O)cc3Cl)nc3c(OC4(C)CC4)ncnc32)c1` [Example T185, (S)-3-(3-chloro-4-(6-(1-methylcyclopropoxy)-9-((4-methylpyridin-2-yl)methyl)-9H-purin-8-yl)phenoxy)pyrrolidin-2-one], the figures for the IC50 in assay [1] (setting [3]) and in assay [2] (setting [4]) were over 10000 nM and 501 nM, respectively.

Regarding `Cc1ccnc(Cn2c(-c3ccc(O[C@@H]4CCNC4=O)cc3Cl)nc3c(OC4(C)CC4)ncnc32)c1` [Example T186, (R)-3-(3-chloro-4-(6-(1-methylcyclopropoxy)-9-((4-methylpyridin-2-yl)methyl)-9H-purin-8-yl)phenoxy)pyrrolidin-2-one], the IC50 in assay [1] (setting [3]) is over 10000 nM; in assay [2] (setting [4]), 251 nM.

Take `Cc1ccnc(Cn2c(-c3ccc(OCC4(O)CC4)cc3Cl)nc3c(OC4(C)CC4)ncnc32)c1` [Example T197, 1-((3-chloro-4-(6-(1-methylcyclopropoxy)-9-((4-methylpyridin-2-yl)methyl)-9H-purin-8-yl)phenoxy)methyl)cyclopropan-1-ol]: the IC50 was over 10000 nM in assay [1] (setting [3]) and 251 nM in assay [2] (setting [4]).

Regarding `Cc1ccnc(Cn2c(-c3ccc(OCCN(C)C)cc3Cl)nc3c(OC4(C#N)CC4)ncnc32)c1` [Example T203, 1-((8-(2-chloro-4-(2-(dimethylamino)ethoxy)phenyl)-9-((4-methylpyridin-2-yl)methyl)-9H-purin-6-yl)oxy)cyclopropane-1-carbonitrile], the IC50 was over 10000 nM in assay [1] (setting [5]) and 398 nM in assay [2] (setting [6]).

As for `Cc1ccnc(Cn2c(-c3ccc(N4CC(C(N)=O)C4)cc3Cl)nc3c(OC4(C)CC4)ncnc32)c1` [Example T204, 1-(3-chloro-4-(6-(1-methylcyclopropoxy)-9-((4-methylpyridin-2-yl)methyl)-9H-purin-8-yl)phenyl)azetidine-3-carboxamide], the IC50 in assay [1] (setting [5]) was over 10000 nM; in assay [2] (setting [6]), 631 nM.

As for `Cc1ccnc(Cn2c(-c3ccc(OC4CN(C(N)=O)C4)cc3Cl)nc3c(OC4(C)CC4)ncnc32)c1` [Example T205, 3-(3-chloro-4-(6-(1-methylcyclopropoxy)-9-((4-methylpyridin-2-yl)methyl)-9H-purin-8-yl)phenoxy)azetidine-1-carboxamide], the IC50 in assay [1] (setting [5]) was over 10000 nM; in assay [2] (setting [6]), 398 nM.

Regarding `CC1(Oc2ncnc3c2nc(-c2ccc(OCCN4CC(O)C4)cc2Cl)n3Cc2cc(Cl)ccn2)CC1` [Example T206, 1-(2-(3-chloro-4-(9-((4-chloropyridin-2-yl)methyl)-6-(1-methylcyclopropoxy)-9H-purin-8-yl)phenoxy)ethyl)azetidin-3-ol], the IC50 in assay [1] (setting [5]) was over 10000 nM; in assay [2] (setting [6]) it was 126 nM.

For `CC1(Oc2ncnc3c2nc(-c2ccc(OCCN4CCNCC4)cc2Cl)n3Cc2ncc(C(F)(F)F)s2)CC1` [Example T207, 2-((8-(2-chloro-4-(2-(piperazin-1-yl)ethoxy)phenyl)-6-(1-methylcyclopropoxy)-9H-purin-9-yl)methyl)-5-(trifluoromethyl)thiazole], the IC50 in assay [1] (setting [5]) was 10000 nM; in assay [2] (setting [6]) it was 794 nM.

On to `Cc1ccnc(Cn2c(-c3ccc(O[C@H]4CCNC4)cc3Cl)nc3c(OC4(C)CC4)ncnc32)c1` [Example T208, (S)-8-(2-chloro-4-(pyrrolidin-3-yloxy)phenyl)-6-(1-methylcyclopropoxy)-9-((4-methylpyridin-2-yl)methyl)-9H-purine], for which the values for the IC50 in assay [1] (setting [5]) and in assay [2] (setting [6]) were over 10000 nM and 501 nM, respectively.

Consider `Cc1ccnc(Cn2c(-c3ccc(CN4CC(O)C4)cc3Cl)nc3c(OC4(C)CC4)ncnc32)c1` [Example T209, 1-(3-chloro-4-(6-(1-methylcyclopropoxy)-9-((4-methylpyridin-2-yl)methyl)-9H-purin-8-yl)benzyl)azetidin-3-ol], for which the IC50 was over 10000 nM in assay [1] (setting [5]) and 631 nM in assay [2] (setting [6]).

With `Cc1ccnc(Cn2c(-c3ccc(CC(=O)N(C)C)cc3Cl)nc3c(OC4(C)CC4)ncnc32)c1` [Example T210, 2-(3-chloro-4-(6-(1-methylcyclopropoxy)-9-((4-methylpyridin-2-yl)methyl)-9H-purin-8-yl)phenyl)-N,N-dimethylacetamide], the figures for the IC50 in assay [1] (setting [5]) and in assay [2] (setting [6]) were over 10000 nM and 316 nM, respectively.

Take `Cc1cnc(Cn2c(-c3ccc(OC4CC5(CNC5)C4)cc3Cl)nc3c(OC4(C)CC4)ncnc32)s1` [Example T215, 2-((8-(4-((2-azaspiro[3.3]heptan-6-yl)oxy)-2-chlorophenyl)-6-(1-methylcyclopropoxy)-9H-purin-9-yl)methyl)-5-methylthiazole]: the IC50 in assay [1] (setting [5]) was over 10000 nM; in assay [2] (setting [6]), 1000 nM.

With `Cc1ccnc(Cn2c(-c3ccc(N4CCS(=O)(=O)CC4)cc3Cl)nc3c(OC4(C)CC4)ncnc32)c1` [Example T225, 4-(3-chloro-4-(6-(1-methylcyclopropoxy)-9-((4-methylpyridin-2-yl)methyl)-9H-purin-8-yl)phenyl)thiomorpholine 1,1-dioxide], the IC50 in assay [1] (setting [5]) is over 10000 nM; in assay [2] (setting [6]), 631 nM.

Consider `CC1(Oc2ncnc3c2nc(-c2ccc(N4CCC(N)CC4)cc2Cl)n3Cc2cc(Cl)ccn2)CC1` [Example T230, 1-(3-chloro-4-(9-((4-chloropyridin-2-yl)methyl)-6-(1-methylcyclopropoxy)-9H-purin-8-yl)phenyl)piperidin-4-amine], for which the IC50 is over 10000 nM in assay [1] (setting [5]) and 398 nM in assay [2] (setting [6]).

In the case of `CN(C)CCCOc1ccc(-c2nc3c(OC4(C)CC4)ncnc3n2Cc2cc(Cl)ccn2)c(F)c1` [Example T231, 3-(4-(9-((4-chloropyridin-2-yl)methyl)-6-(1-methylcyclopropoxy)-9H-purin-8-yl)-3-fluorophenoxy)-N,N-dimethylpropan-1-amine], the IC50 in assay [1] (setting [5]) is over 10000 nM; in assay [2] (setting [6]), 251 nM.

Regarding `Cc1ccnc(Cn2c(-c3ccc(OCCCS(C)(=O)=O)cc3Cl)nc3c(OC4(C)CC4)ncnc32)c1` [Example T234, 8-(2-chloro-4-(3-(methylsulfonyl)propoxy)phenyl)-6-(1-methylcyclopropoxy)-9-((4-methylpyridin-2-yl)methyl)-9H-purine], the IC50 in assay [1] (setting [5]) was over 10000 nM; in assay [2] (setting [6]), 200 nM.

With `Cc1ccnc(Cn2c(-c3ccc(CCN(C)C)cc3Cl)nc3c(OC4(C)CC4)ncnc32)c1` [Example T236, 2-(3-chloro-4-(6-(1-methylcyclopropoxy)-9-((4-methylpyridin-2-yl)methyl)-9H-purin-8-yl)phenyl)-N,N-dimethylethan-1-amine], the IC50 in assay [1] (setting [5]) was over 10000 nM; in assay [2] (setting [6]) it was 251 nM.

With `Cc1ccnc(Cn2c(-c3cccc(OCCN(C)C)c3Cl)nc3c(OC4(C)CC4)ncnc32)c1` [Example T237, 2-(2-chloro-3-(6-(1-methylcyclopropoxy)-9-((4-methylpyridin-2-yl)methyl)-9H-purin-8-yl)phenoxy)-N,N-dimethylethan-1-amine], the IC50 was over 10000 nM in assay [1] (setting [5]) and 50.1 nM in assay [2] (setting [6]).

As for `CNCCCOc1ccc(-c2nc3c(OC4(C)CC4)ncnc3n2Cc2cc(C)ccn2)c(Cl)c1` [Example T238, 3-(3-chloro-4-(6-(1-methylcyclopropoxy)-9-((4-methylpyridin-2-yl)methyl)-9H-purin-8-yl)phenoxy)-N-methylpropan-1-amine], the IC50 is over 10000 nM in assay [1] (setting [5]) and 501 nM in assay [2] (setting [6]).

For `Cc1cnc(Cn2c(-c3ccc(OCCN4CCCC4)cc3Cl)nc3c(OC4(C)CC4)ncnc32)s1` [Example T239, 2-((8-(2-chloro-4-(2-(pyrrolidin-1-yl)ethoxy)phenyl)-6-(1-methylcyclopropoxy)-9H-purin-9-yl)methyl)-5-methylthiazole], the values for the IC50 in assay [1] (setting [5]) and in assay [2] (setting [6]) were over 10000 nM and 251 nM, respectively.
